Laboratory results as given in US5721211A, “Compositions and methods for treating small cell and nonsmall cell lung cancers” (The George Washington University, priority 1993, dated 1998).
Ends that are not written are not given here.

How the values were obtained:
[1] = system: tumors of both SCLC and NSCLC types of lung cancer cells; parameters: species or system nude mice; conditions: mouse, in vivo
[2] = system: lung cancer cells or plasma membranes derived therefrom; assay: direct binding of labeled thymosin to lung cancer cells or plasma membranes; conditions: 125I-Tyr labeled ligand
From the text: Direct, i.e., noncompetitive, binding of a labeled ligand to intact cells or plasma membranes may be determined. […] These and other experiments not detailed here indicate that the thymosins may not have specific receptors. Palaszynski, E., Biochemical Studies on Thymosin α1, Ph.D. Thesis, George Washington University, Washington, D.C., 1981. It is thus all the more suprising and unexpected that certain thymosins have such profound inhibitory effects on the binding of VIP to its specific receptors and on the growth promoting effects of VIP in lung cancer cells.

[3] = system: NCI-H1299 lung cancer cells; assay: 3H-arachidonic acid (AA) release; type: cell-based; conditions: 1 μM; 4 determinations
Protocol: In a procedure substantially as set forth in Moody et al. (1993) supra, NCI-H1299 lung cancer cells were loaded with ^3 H-AA overnight, and after removal of free ^3 H-AA cells, were treated with increasing concentrations of THNα1(1-16)amide (Δ), THNα1 (.largecircle.) and THNα1amide (.box-solid.) (produced as described above). The mean value ± S.E. of 4 determinations is indicated; *,p<0.05; ** p<0.01.

[4] = system: NCI-H510 lung cancer cells; assay: NCI-H510 growth in vivo; parameters: species or system nude mice; conditions: 10 μg s.c. daily, week 4, mean of 3 tumors
Protocol: In a procedure substantially as set forth in Moody et al. (1993) supra, NCI-H510 lung cancer cells were injected into nude mice, and tumors formed after one week. The compounds listed in Table V below (produced as described above) were injected (100 microliters) subcutaneously daily. Tumors were measured at week 4.

[5] = system: NCI-H720 (lung carcinoid cancer cells); assay: soft agar colonization, NCI-H720; type: cell-based; conditions: 1 μM; for NCI-H720 (carcinoid) colonies: colonies greater than 50 μm, mean ± S.E. of 3
Protocol: (§1) The effects of THNα1 on the growth of lung cancer cell lines was studied. Single viable cells were plated in soft agar as previously described (Mahmoud, S., et al., Life Sci., 44:367 (1989)), and, after two weeks, the colonies were stained with 0.1% p-iodonitrotetrazolium violet.
(§2) The experimental conditions of Example 3 were repeated with NCI-H720 (lung carcinoid cancer cells) and NCI-N417 (SCLC lung cancer cells) cell lines. Colonies were counted as before.

[6] = system: NCI-N417 (SCLC lung cancer cells); assay: soft agar colonization, NCI-N417; type: cell-based; conditions: 1 μM; for (SCLC) N417 colonies: colonies greater than 50 μm, mean ± S.E. of 3
Protocol: as §1, §2

lung cancer cells = assay: in vitro colonization of lung cancer cells (general statement); type: cell-based
Protocol: Candidate anti-lung cancer peptides and antibodies may be screened in vitro in a soft agar colonization assay such as that described by Mahmoud, S., et al., Life Sci., 44:367 (1989) which is herein incorporated by reference. In general, single viable lung cancer cells are plated in soft agar. After an appropriate growth period, such as 14 days, cell colonies may be stained with an appropriate cytochemical stain, and the stained cells viewed microscopically. Cytochemical stains are well known to those skilled in the art of histology.

Ac-SDAAVDTSSEITTKDLKEKKEVVEEAEN [THNα1, thymosin α1]
toxic side effects [1]: No toxic side effects were observed

(^125 I-Tyr)-labeled THNα1: 125I-Tyr labeled THNα1 used for direct binding analyses (SDAAVDTSSEITTKDLKEKKEVVEEAEN; ends and bridges not checked; also: 125I-Tyr label, place not given here; UniProt P06454 2-29, looked up)
direct (noncompetitive) binding affinity [2]: bind with poor affinity

Ac-SDAAVDTSSEITTKDL-NH2 [THNα1-N16 (1-16) amide, Ac-Ser-Asp-Ala-Ala-Val-Asp-Thr-Ser-Ser-Glu-Ile-Thr-Thr-Lys-Asp- Leu-NH2]
3H-AA release [3]: significantly stimulate | Tumor volume [4]: 410 mm^3 | Tumor volume ([4]; listed as THNα1-N16 (1-16)amide): strongly inhibit

thymosin β4 (SDKPDMAEIEKFDKSKLKKTETQEKNPLPSKETIEQEKQAGES; Thymosin beta-4; UniProt P62328 2-44, looked up) [THN β4, a 43-amino acid peptide, MW 4982]
N/No, NCI-H720 [5]: 0.93 | NCI-H720 (carcinoid) colonies [5]: 68 ± 20 | NCI-H720 (carcinoid) colonies ([5]; listed as THNβ4): did not influence colony number significantly | N/No, N417 [6]: 1.20 | (SCLC) N417 colonies [6]: 240 ± 68 | (SCLC) N417 colonies ([6]; listed as THNβ4): did not influence colony number significantly | colony formation of lung cancer cells in vitro (lung cancer cells): little effect
